Results from PMC11679033, “Assessing the Potential Synergistic/Antagonistic Effects of Citrinin and Cannabidiol on SH-SY5Y, HepG2, HEK293 Cell Lines, and Human Lymphocytes” (Toxins, 2024).
Where “and” joins values, the source holds several entries; their conditions need not be identical. Identical values can stand only once.

Columns and labels:
[1] = MTS viability assay, SH-SY5Y; format: cell-based, human; settings: human, SH-SY5Y cells; SH-SY5Y, 24 h exposure, MTS; read-out: IC50 (cytotoxicity)
Method: (§1) Human neuroblastoma SH-SY5Y cells (ECACC 94030304), human hepatocyte carcinoma HepG2 (ECACC 85011430) and human embryonic kidney HEK293 (ECACC 85120602) used in the experiments were obtained from the European Collection of Authenticated Cell Cultures (ECACC) through Sigma-Aldrich (Steinheim, Germany). SH-SY5Y cells were grown in Dulbecco’s Modified Eagle’s Medium F12 containing 15% (v/v) fetal bovine serum (FBS), 2 mM glutamine, 1% (v/v) penicillin/streptomycin (PenStrep solution), and 1% (v/v) non-essential amino acids (NEAA solution). HEK293 and HepG2 cells were grown in EMEM medium (Sigma-Aldrich, Steinheim, Germany) supplemented with 10% (v/v) FBS, 2 mM glutamine, 1% (v/v) PenStrep and 1% (v/v) NEAA. All media and supplements were purchased from Sigma-Aldrich, Steinheim, Germany. Cells were cultured at 37 °C in a 5% CO2 atmosphere, the medium was changed every two days, and passage was carried out according to the manufacturer’s protocol.
(§2) MTS assay (CellTiter 96® AQueous One Solution Cell Proliferation Assay, Promega, Madison, WI, USA) was used to determine the viability of cells/cytotoxic properties of tested compounds by measuring cells’ mitochondrial succinate dehydrogenase activity. The procedure followed a previously described protocol. In brief, the cells were seeded in transparent 96-well plates at a density of 20,000 cells/well one day before the experiment and treated with tested compounds in concentrations: 0.01, 0.1, 0.5, 1, 2, 5, 10, 25, 50, 100 and 300 µM. Triton X-100 at a final concentration of 0.18% (v/v) (stock of 9% in water; Sigma-Aldrich, Steinheim, Germany) was used as a positive control. After 24 h, treatment with tested compounds and incubation with MTS reagent, the absorbance was read at 492 nm on an Infinite M200PRO (Tecan Group Ltd., Männedorf, Switzerland) plate reader. Data were taken from at least three independent experiments (each treatment performed in duplicate or triplicate) and expressed as percentages (mean ± standard error) of viable cells compared to control (untreated) cells. IC50 values were determined by a nonlinear fit equation predefined in Prism software 8 (GraphPad Software, San Diego, CA, USA).
(§3) The same method was used to evaluate a potential toxic synergistic effect on cells exposed to a combination of CBD and CIT at approximately LOAEL doses (lowest observed adverse effect level, 1 and 30 μM for SH-SY5Y and HepG2, and 2 and 0.05 μM for HEK293, respectively). There is no official recommendation for CBD oral use, but according to the available literature, we used a dose that corresponded to daily intake, which was 10 mg/kg/day (calculated on a person of 70 kg ~ 1 μM). These selected LOAEL concentrations were used for all other assays as well.

SH-SY5Y cells [2] = assay: MTS viability assay, SH-SY5Y; format: cell-based, human; settings: for IC20: Homo sapiens, established on SH-SY5Y and HepG2 cell models, read-out: IC20 concentration; for lowest observed adverse effect level (LOAEL), approximate / cell viability at LOAEL concentrations: SH-SY5Y, 24 h; for cell viability at LOAEL concentrations: CBD 1 μM, CIT 30 μM, alone or combined
Method: as §1, §2, §3

[3] = MTS viability assay, HepG2; format: cell-based, human; settings: human, HepG2 cells; HepG2, 24 h exposure, MTS; read-out: IC50 (cytotoxicity)
Method: as §1, §2, §3

HepG2 cells [4] = assay: MTS viability assay, HepG2; format: cell-based, human; settings: for lowest observed adverse effect level (LOAEL), approximate / cell viability at LOAEL concentrations: HepG2, 24 h; for cell viability at LOAEL concentrations: CBD 1 μM, CIT 30 μM, alone or combined
Method: as §1, §2, §3

SH-SY5Y cells [5] = assay: Cell membrane integrity (LDH release), SH-SY5Y; format: cell-based, human; settings: 24 h, CBD 1 μM, CIT 30 μM, alone or combined
Method: (§4) Cell membrane integrity was determined after exposure to compounds’ concentrations corresponding to LOAEL concentrations in 24 h by measuring the release of the intracellular lactate dehydrogenase (LDH) and the procedure followed a previously described protocol using The CytoTox-ONE™ Homogeneous Membrane Integrity Assay (Promega, Madison, WI, USA). In short, the cells were seeded in black 96-well plates at a density of 10,000 cells/well one day before the experiment and treated with selected LOAEL concentrations. Triton X-100 at a final concentration of 0.18% (v/v) (stock of 9% in water) was used as a positive control to determine the maximal LDH release. Data were taken from at least two independent experiments (each treatment performed in duplicate or triplicate) and plotted as a percentage of LDH release compared to the determined maximal LDH release, according to the manufacturer’s calculation protocol.

HepG2 cells [6] = assay: Cell membrane integrity (LDH release), HepG2; format: cell-based, human; settings: HepG2, 24 h; CBD 1 μM, CIT 30 μM, alone or combined
Method: as §4

HEK293 cells = assay: Cell membrane integrity (LDH release), HEK293; format: cell-based, human; settings: HEK293, 24 h; CBD 2 μM, CIT 0.05 μM, alone or combined
Method: as §4

[7] = system: human peripheral blood lymphocytes; assay: Alkaline comet assay; format: cell-based; settings: 24 h, CIT 30 µM; for tail intensity, mean value ± SE: CBD 1 µM, bleomycin 1.25 µg/mL
Method: The experimental design included the establishment of lymphocyte cultures, and the 24 h treatments with the test compounds, performed according to the last OECD recommendations, given in the Test Guideline No. 487—In Vitro Mammalian Cell Micronucleus Test.
The selection of specific concentrations of test compounds adhered to the guidelines for in vitro genotoxicity testing using comet assay. […] Solutions used in testing were prepared just prior to treatment by dissolving the test compounds in ethanol (Kemika, Zagreb, Croatia).
Two independent trials, with six experimental groups each, were conducted. A total of six replicate cultures for every single experimental group were established. This step was carried out as follows: aliquots of heparinized blood (V = 600 μL per culture) were pipetted into a growth medium RPMI-1640 (Gibco, Grand Island, NY, USA) supplemented with 10% fetal calf serum (Gibco, Grand Island, NY, USA) and antibiotics (penicillin and streptomycin; Sigma-Aldrich, Steinheim, Germany). Lymphocytes were stimulated with a mitogen phytohemagglutinin (Remel, Lenexa, KS, USA) in order to induce cell division prior to exposure to the test chemicals. Cultures were maintained in the humidified atmosphere of 5% CO2 at 37 °C (Heraeus Hera Cell 240 incubator; Langenselbold, Germany).
Negative controls (NCs) were non-treated lymphocytes. Solvent controls (SCs) were lymphocytes treated with ethanol (its final concentration in the culture corresponded to 0.03%). Positive controls (PCs) were lymphocytes treated for 24 h with bleomycin at 1.25 µg/mL (according to [69]). The other three groups were lymphocytes exposed to single CIT, single CBD, and their combination (CIT + CBD, at the same concentrations).
Treatments with test compounds started 20 h after the initial establishment of the cell cultures and lasted for 24 h. Upon completion of the exposure, aliquots of 100 µL of the treated cultures were pipetted in sterile conditions and used to prepare microgels for the alkaline comet assay. The remaining content of flasks was further processed using Cytokinesis-Block Micronucleus Cytome (CBMN Cyt) Assay.

C=C(C)[C@@H]1CCC(C)=C[C@H]1c1c(O)cc(CCCCC)cc1O [CBD, cannabidiol]
IC50 at 24 h [1]: 13 ± 2 µM | IC20 (SH-SY5Y cells [2]): 1 µM and 3.15 µg/mL | lowest observed adverse effect level (LOAEL), approximate (SH-SY5Y cells [2]): ~ 1 μM | cell viability at LOAEL concentrations (SH-SY5Y cells [2]): did not independently impact cell viability | IC50 at 24 h [3]: 40 ± 7 µM | lowest observed adverse effect level (LOAEL), approximate (HepG2 cells [4]): ~ 1 μM | cell viability at LOAEL concentrations (HepG2 cells [4]): did not independently impact cell viability | cytotoxicity fold higher than CIT (HepG2 cells [4]; in both HepG2 and SH-SY5Y, 24 h): 1.5- to 4 fold | cell membrane integrity (LDH release) (SH-SY5Y cells [5]): not significantly compromised | cell membrane integrity (LDH release) (HepG2 cells [6]): not significantly compromised | cell membrane integrity (LDH release) (HEK293 cells): not significantly compromised | tail intensity, mean value ± SE [7]: 1.07 ± 0.08%

CC1=C2C(=CO[C@H](C)[C@H]2C)C(O)=C(C(=O)O)C1=O [CIT, citrinin]
IC50 at 24 h [1]: 52 ± 8 µM | IC20 (SH-SY5Y cells [2]): 30 µM and 7.5 µg/mL | lowest observed adverse effect level (LOAEL), approximate (SH-SY5Y cells [2]): ~30 µM | cell viability at LOAEL concentrations (SH-SY5Y cells [2]): did not independently impact cell viability | IC50 at 24 h [3]: 59 ± 9 µM | lowest observed adverse effect level (LOAEL), approximate (HepG2 cells [4]): ~30 µM | cell viability at LOAEL concentrations (HepG2 cells [4]): did not independently impact cell viability | cell membrane integrity (LDH release) (SH-SY5Y cells [5]): not significantly compromised | cell membrane integrity (LDH release) (HepG2 cells [6]): not significantly compromised | cell membrane integrity (LDH release) (HEK293 cells): not significantly compromised | group median value of tail intensity [7]: below 10% | tail intensity, mean value ± SE [7]: 6.56 ± 0.37%
